From patent publication US20200017496A1 (priority 2017, published 2020)
Like-named read-outs stand apart in the source and are kept apart here.

What was measured:
Assay in all cases: MIC of compounds alone and combined with antibacterials, broth microdilution (CLSI)
Type in all cases: cell-based
[1] = test system: Escherichia coli (ECO) isolates; details: Escherichia coli, ATB alone, read-out: MIC
Outline: (§1)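 Inoculum 5·10^5 CFU/mL (final), log phase, ca-MHB; 16-20 h, 35° C, ambient air. MIC = lowest conc. with no visible growth; ATB MIC read at each compound level.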

[2] = test system: Morganella morganii (MMO) isolates; details: for MIC ATB in combination: AF1 @ 4 μg/mL; for MIC: Morganella morganii, ATB alone
Outline: as §1

[3] = test system: Providencia rettgeri (PRE) isolates; details: for MIC: Providencia rettgeri, ATB alone
Outline: as §1

[4] = test system: Providencia stuartii (PST) isolates; details: for MIC ATB in combination: AF1 @ 4 μg/mL; for MIC: Providencia stuartii, ATB alone, read-out: MIC
Outline: as §1

[5] = test system: Serratia marcescens (SMA) isolates; details: for MIC: Serratia marcescens
Outline: as §1

## CO/N=C(\C(=O)N[C@@H]1C(=O)N2C(C(=O)O)=C(COC(N)=O)CS[C@H]12)c1ccco1 [FUR, Cefuroxime]
[1]; strain ECO UFR16 (TEM-1, CTX-M-15, OXA-1, OXA-48)
  MIC: > 256 µg/mL
[1]; strain ECO UFR17 (TEM-1, CTX-M-15, CMY-2, OXA-1, OXA-181)
  MIC: > 256 µg/mL
[1]; strain ECO UFR18 (CTX-M-15, OXA-204)
  MIC: > 256 µg/mL
[1]; strain ECO UFR19 (CTX-M-15, CMY-2, OXA-1, OXA-204)
  MIC: > 256 µg/mL
[1]; strain ECO UFR20 (SHV-1, CTX-M-15, OXA-1, OXA-232)
  MIC: > 256 µg/mL
[1]; strain ECO UFR74 (SHV-1, DHA-1)
  MIC: > 256 µg/mL
[1]; strain ECO UFR86 (ompC-, ompF-)
  MIC: 64 µg/mL
[1]; strain ECO UFR184 (CTX-M-15, CMY-4, OXA-1, OXA-204)
  MIC: > 256 µg/mL
[1]; strain ECO UFR185 (OXA-48)
  MIC: > 256 µg/mL
[1]; strain ECO UFR186 (TEM-1, CTX-M-14, OXA-48)
  MIC: > 256 µg/mL
[1]; strain ECO UFR187 (CTX-M-15, OXA-48)
  MIC: > 256 µg/mL
[1]; strain ECO UFR189 (TEM-1, CTX-M-15, OXA-48)
  MIC: > 256 µg/mL
[1]; strain ECO UFR190 (CTX-M-24, OXA-48)
  MIC: > 256 µg/mL
[1]; strain ECO UFR191 (TEM-1, CTX-M-24, OXA-48)
  MIC: > 256 µg/mL
[1]; strain ECO UFR207 (CTX-M-15)
  MIC: > 256 µg/mL
[1]; strain ECO UFR208 (SHV-12)
  MIC: > 256 µg/mL
[1]; strain ECO UFR209 (TEM-1, CTX-M-15)
  MIC: > 256 µg/mL
[1]; strain ECO UFR210 (SHV-12)
  MIC: > 256 µg/mL
[1]; strain ECO UFR212 (CMY-2)
  MIC: > 256 µg/mL
[1]; strain ECO UFR218 (TEM-1, SHV-1, CTX-M-15)
  MIC: > 256 µg/mL
[2]; MMO 200321
  MIC ATB in combination: 128 µg/mL
[2]; MMO UFR144
  MIC ATB in combination: 32 µg/mL
[2]; MMO UFR240
  MIC ATB in combination: 16 µg/mL
[2]; MMO UFR241
  MIC ATB in combination: 32 µg/mL
[2]; MMO UFR242
  MIC ATB in combination: 32 µg/mL
[2]; MMO UFR243
  MIC ATB in combination: 32 µg/mL
[2]; MMO UFR244
  MIC ATB in combination: 16 µg/mL
[2]; MMO UFR245
  MIC ATB in combination: 32 µg/mL
[2]; MMO UFR246
  MIC ATB in combination: 64 µg/mL
[2]; MMO UFR247
  MIC ATB in combination: 16 µg/mL
[2]; strain MMO 200321 (TEM-1, CTX-M-15, OXA-1)
  MIC: > 256 µg/mL
[2]; strain MMO UFR144 (TEM-1, CTX-M-15)
  MIC: > 256 µg/mL
[2]; strain MMO UFR240 (CTX-M-9)
  MIC: > 256 µg/mL
[2]; strain MMO UFR241 (TEM-1, CTX-M-15)
  MIC: > 256 µg/mL
[2]; strain MMO UFR242 (TEM-52)
  MIC: > 256 µg/mL
[2]; strain MMO UFR243 (DHA-1), read-out: MIC
  MIC: 128 µg/mL
[2]; strain MMO UFR244 (DHA-1), read-out: MIC
  MIC: 64 µg/mL
[2]; strain MMO UFR245 (DHA-1), read-out: MIC
  MIC: 128 µg/mL
[2]; strain MMO UFR246 (DHA-1), read-out: MIC
  MIC: 128 µg/mL
[2]; strain MMO UFR247 (DHA-1), read-out: MIC
  MIC: > 256 µg/mL
[3]; PRE UFR99, AF1 @ 4 μg/mL
  MIC ATB in combination: >128 µg/mL
[3]; strain PRE UFR99 (OXA-1, OXA-181)
  MIC: > 256 µg/mL
[3]; strain PRE UFR236 (TEM-1, OXA-48), read-out: MIC
  MIC: 64 µg/mL
[3]; strain PRE UFR236, antibacterial combined with AF1 @ 4 μg/mL
  MIC ATB in combination: 8 µg/mL
[4]; PST UFR94
  MIC ATB in combination: 8 µg/mL
[4]; PST UFR95
  MIC ATB in combination: 32 µg/mL
[4]; PST UFR235
  MIC ATB in combination: 8 µg/mL
[4]; strain PST UFR94 (CTX-M-14)
  MIC: > 256 µg/mL
[4]; strain PST UFR95 (TEM-24)
  MIC: 128 µg/mL
[4]; strain PST UFR235 (VEB-1)
  MIC: 256 µg/mL
[5]; SMA UFR30, AF1 @ 4 μg/mL
  MIC ATB in combination: 64 µg/mL
[5]; SMA UFR134, AF1 @ 4 μg/mL
  MIC ATB in combination: 64 µg/mL
[5]; SMA UFR135, AF1 @ 4 μg/mL
  MIC ATB in combination: >128 µg/mL
[5]; SMA UFR136, AF1 @ 4 μg/mL
  MIC ATB in combination: >128 µg/mL
[5]; SMA UFR137, AF1 @ 4 μg/mL
  MIC ATB in combination: 32 µg/mL
[5]; SMA UFR138, AF1 @ 4 μg/mL
  MIC ATB in combination: 64 µg/mL
[5]; SMA UFR139, AF1 @ 4 μg/mL
  MIC ATB in combination: 64 µg/mL
[5]; SMA UFR141, AF1 @ 4 μg/mL
  MIC ATB in combination: 128 µg/mL
[5]; SMA UFR142, AF1 @ 4 μg/mL
  MIC ATB in combination: 64 µg/mL
[5]; SMA UFR143, AF1 @ 4 μg/mL
  MIC ATB in combination: 32 µg/mL
[5]; SMA UFR239, AF1 @ 4 μg/mL
  MIC ATB in combination: >128 µg/mL
[5]
  MIC: > 256 µg/mL
[5]; ATB alone, strain SMA UFR238 (OXA-48), read-out: MIC
  MIC: > 256 µg/mL
[5]; strain SMA UFR30 (OXA-405), ATB alone, read-out: MIC
  MIC: > 256 µg/mL
[5]; strain SMA UFR134 (TEM-1, BES-1), ATB alone, read-out: MIC
  MIC: > 256 µg/mL
[5]; strain SMA UFR137 (SME-1), ATB alone, read-out: MIC
  MIC: 256 µg/mL
[5]; strain SMA UFR138 (SME-1), ATB alone, read-out: MIC
  MIC: 256 µg/mL
[5]; strain SMA UFR139 (SME-2), ATB alone, read-out: MIC
  MIC: > 256 µg/mL
[5]; strain SMA UFR141 (OXA-48), ATB alone, read-out: MIC
  MIC: > 256 µg/mL
[5]; strain SMA UFR142 (OXA-48), ATB alone, read-out: MIC
  MIC: > 256 µg/mL
[5]; strain SMA UFR143 (CTX-M-15, OXA-1, OXA-48), ATB alone, read-out: MIC
  MIC: > 256 µg/mL
[5]; strain SMA UFR239 (ESAC), ATB alone, read-out: MIC
  MIC: 256 µg/mL
[5]; strain SMA UFR238, antibacterial combined with AF1 @ 4 μg/mL
  MIC ATB in combination: 64 µg/mL
